Measurements reported in publication PMC10377034, “Syntheses of 25-Adamantyl-25-alkyl-2-methylidene-1α,25-dihydroxyvitamin D3 Derivatives with Structure–Function Studies of Antagonistic and Agonistic Active Vitamin D Analogs” (Biomolecules, 2023).
Like-named read-outs stand apart in the source and are kept apart here.

Columns and labels:
[1] = test system: HL-60 cell; design: method as in PMID 6572492; settings: cited from earlier work
[2] = test system: VDR; settings: cited from earlier work; for IC50: literature values, read-out: VDR Affinity IC50
[3] = test system: VDR; settings: literature values, cited from earlier work; for EC50: read-out: Transcriptional Activity EC50
[4] = test system: VDR; settings: antagonist activity for 1; read-out: Antagonistic Activity IC50; cited from earlier work
[5] = test system: CYP24A1 expression in HaCaT cells; design: method as in PMID 17325131, PMID 24773565; settings: cited from earlier work
[6] = test system: CYP24A1 expression in intestine-derived HCT116 cells; design: method as in PMID 17325131; settings: cited from earlier work
[7] = molecular target: T1, hVDR (Homo sapiens, UniProt P11473); test: VDR transactivation luciferase reporter assay in HEK293 cells (SPP×3-tk-LUC); assay type: cell-based; settings: for Transcriptional activity efficacy: 1,25(OH)2D3 = 100%; for Emax: read-out: Transcriptional Activity % Efficacy of That of 1 (converted)
T1 construct: expressed in transfected cells; host or cells: HEK293
T1 sequence (P11473 1-427): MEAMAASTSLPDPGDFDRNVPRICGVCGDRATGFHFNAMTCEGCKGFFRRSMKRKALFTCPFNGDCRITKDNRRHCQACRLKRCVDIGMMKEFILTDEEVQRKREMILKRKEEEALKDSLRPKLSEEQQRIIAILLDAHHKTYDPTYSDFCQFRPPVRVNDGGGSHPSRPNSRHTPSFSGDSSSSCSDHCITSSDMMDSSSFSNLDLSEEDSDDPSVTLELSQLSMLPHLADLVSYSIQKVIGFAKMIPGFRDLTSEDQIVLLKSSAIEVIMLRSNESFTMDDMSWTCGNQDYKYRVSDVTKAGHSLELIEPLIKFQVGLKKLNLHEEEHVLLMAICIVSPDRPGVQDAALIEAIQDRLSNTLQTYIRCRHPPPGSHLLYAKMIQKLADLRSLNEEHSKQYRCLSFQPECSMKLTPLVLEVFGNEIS
Method: The transcriptional activity of the 25-alkylvitamin D analogs on the VDR was evaluated via a luciferase reporter assay in HEK293 human kidney cells transfected with an hVDR expression vector and a luciferase reporter with mouse osteopontin vitamin D response elements (VDREs, SPP×3-tk-LUC).
Transfections of 50 ng of TK-Spp × 3-LUC reporter plasmid, 10 ng of pCMX-β-galactosidase, and 15 ng of pCMX-VDR for each well of a 96-well plate were performed in HEK293 cells using the calcium phosphate coprecipitation method, as described previously. The mammalian two-hybrid assay for cofactor interaction with VDR used 50 ng of TK-MH100(UAS) × 3- LUC reporter plasmid, 10 ng of pCMX-β-galactosidase, 15 ng of pCMX-GAL4-RXRα, pCMX-GAL4-SRC1, or pCMX-GAL4-NCoR, and 15 ng of pCMX-VP16-VDR for each well of a 96-well plate. Luciferase and β-galactosidase activities were measured with a luminometer and a microplate reader (Molecular Devices, Sun Jose, CA, USA), respectively. Luciferase values were normalized to the internal β-galactosidase control.
HEK293 cells were co-transfected with TK-Spp × 3-LUC reporter plasmid and pCMX−VDR, and 8 h after transfection the cells were treated with several concentrations of each compound. After 24 h, the cells were harvested for assaying luciferase and β-galactosidase activity using a luminometer (Molecular Devices, Sunnyvale, CA, USA).

[8] = test system: human dedifferentiated fat (DFAT) cells; test: Osteogenic differentiation assay: ALP activity in human DFAT cells; assay type: cell-based; settings: osteogenic medium, 100 nM, 7 days, natural hormone 1 = 100%
Method: Mature adipocytes from the adipose tissue of mammals such as humans and rodents can be dedifferentiated into pluripotent cells using ceiling culture. Dedifferentiated fat (DFAT) cells have potential applications in both regenerative medicine and injury healing, as well as mesenchymal stem cells, embryonic stem cells, and induced pluripotent stem cells. The osteogenic activity of vitamin D derivatives was assessed based on alkaline phosphatase (ALP) activity.
Samples of human subcutaneous adipose tissue were obtained from patients who underwent surgery in the Department of Pediatric Surgery at Nihon University Itabashi Hospital (Tokyo, Japan). The patients gave their written informed consent, and the Ethics Committee of Nihon University School of Medicine approved this study. We prepared dedifferentiated fat (DFAT) cells using the ceiling culture method, as described previously. Briefly, the adipose tissue (approximately 1 g) was cut into small pieces and digested with a 0.1% type I collagenase solution (Koken Co., Ltd., Tokyo, Japan). […] The cells that adhered to the upper surface of the flasks were cultured for conversion to dedifferentiated fat cells. […] Cells at passages 2–4 were used for differentiation experiments.
Cells were grown to confluency in 24-well plates and incubated for a week in DMEM containing 10% FBS, 100 nM dexamethasone (Merk), 10 mM β-glycerophosphate (Merk), and […] L-ascorbic acid-2-phosphate (Merk), with 100 nM of each compound. The induction medium was replaced on day 4. The alkaline phosphatase (ALP) activity in the cell lysates was determined on day 7 with a lab assay ALP kit (Fujifilm wako). The total protein content was determined with the BCA protein assay kit (Thermo Fisher Scientific). ALP levels were normalized to the total protein content.

[9] = molecular target: T2, recombinant hVDR-LBD (Homo sapiens, UniProt P11473); settings: for fold lower activity of rapidly eluting epimer than the other 25-epimer: affinity for human VDR, within each 25-epimer pair; for VDR affinity, % of that of 1,25(OH)2D3: relative to 1,25(OH)2D3
T2 sequence (P11473 140-427): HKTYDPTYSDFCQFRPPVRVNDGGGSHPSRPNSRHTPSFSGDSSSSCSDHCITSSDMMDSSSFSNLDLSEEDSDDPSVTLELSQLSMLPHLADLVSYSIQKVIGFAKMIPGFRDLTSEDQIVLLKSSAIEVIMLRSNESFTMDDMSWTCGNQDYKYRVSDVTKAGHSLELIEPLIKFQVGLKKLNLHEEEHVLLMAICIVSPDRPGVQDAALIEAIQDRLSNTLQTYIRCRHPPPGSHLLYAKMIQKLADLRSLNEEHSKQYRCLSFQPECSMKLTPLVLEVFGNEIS
Method: (§1) The pGEX-hVDR and pGEX were expressed for a GST-VDR fusion protein and a control GST protein, respectively, in Escherichia coli BL21 (Merck, Darmstadt, Germany). The bacteria were lysed by sonication in a sonication buffer (50 mM Tris-HCl, pH 8.0, 50 mM NaCl, 1 mM EDTA, and 1 mM DTT). The supernatant proteins (1 μg) were diluted in a binding buffer (25 mM Tris, pH 7.5, 100 mM KCl, 25 mM DTT, 4 mM CHAPS, pH 7.5) containing bovine serum albumin (100 μg/mL). A solution containing each test compound in 15 μL of EtOH was added to 570 μL of the GST protein solution in each tube. After being vortexed 2–3 times, the mixture was incubated for 30 min at room temperature. […] After being vortexed 2–3 times, the whole mixture was allowed to stand at 4 °C for 20 h, and 400 μL of dextran-coated charcoal solution (Sigma) was added to remove free ligands.
(§2) All values represent the means, and error bars are the standard deviations derived from triplicate assays.

[10] = molecular target: T2, recombinant hVDR-LBD; test: biochemical
Method: as §1, §2

[11] = test system: CYP24A1 expression in all cells (HEK293, SW480, U937, HaCaT, MG63, H292); test: CYP24A1 expression (RT-qPCR), all cells tested; settings: 100 nM, 24 h
Method: HEK293 human kidney cells (RIKEN Cell Bank, Tsukuba, Japan) were cultured in Dulbecco’s modified Eagle’s medium (DMEM) (Fujifilm Wako Pure Chemical Corporation, Tokyo, Japan) containing 5% fetal bovine serum (FBS), 100 U/mL penicillin, and 0.1 mg/mL streptomycin (Nacalai Tesque, Kyoto, Japan). SW480 human colon carcinoma cells (American Type Culture Collection, Manassas, VA) and HaCaT immortalized keratinocyte cells (kindly provided by Dr. Tadashi Terui, Department of Dermatology, Nihon University School of Medicine) were cultured in DMEM containing 10% FBS, 100 U/mL penicillin, and 0.1 mg/mL streptomycin. MG63 human osteosarcoma cells (RIKEN Cell Bank) and lung-derived H292 cells (American Type Culture Collection) were cultured in minimum essential medium containing 10% FBS, 100 U/mL penicillin, and 0.1 mg/mL streptomycin. […] All cells were cultured at 37 °C in a humidified atmosphere containing 5% CO2.
For gene expression analysis, 1 × 10^4 cells per well were plated in a 24-well plate. After 24 h, the cells were treated with an ethanol control or 100 nM of each test compound for 24 h. […] Real-time PCR was performed on the ABI PRISM 7000 sequence detection system (Thermo Fisher Scientific, Waltham, MA, USA) using Power SYBR Green PCR master mix (Thermo Fisher Scientific).

[12] = molecular target: T3, VDR with SRC-1 (Homo sapiens, UniProt P11473); test: Mammalian two-hybrid assay, VDR binding to SRC-1
T3 sequence (P11473 1-427): T1 sequence (P11473 1-427)
T3 sequence (Q15788 595-771 partner limits assumed): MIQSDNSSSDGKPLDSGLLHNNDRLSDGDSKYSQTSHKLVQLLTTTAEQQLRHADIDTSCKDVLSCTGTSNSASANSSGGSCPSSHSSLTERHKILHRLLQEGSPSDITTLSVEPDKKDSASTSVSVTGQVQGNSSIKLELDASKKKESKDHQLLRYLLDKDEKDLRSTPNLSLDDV
Method: (§3) We used the expression plasmids pCMX-VDR, pCMX-VP16- VDR, pCMX-GAL4-RXRα, pCMX-GAL4-SRC-1, and pCMX-GAL4- N-CoR, as reported previously [43]. […] We used luciferase reporters: VDR-responsive Sppx3-tk-LUC and GAL4-responsive MH100(UAS) × 4-tk-LUC reporters [43].
(§4) Transfections of 50 ng of TK-Spp × 3-LUC reporter plasmid, 10 ng of pCMX-β-galactosidase, and 15 ng of pCMX-VDR for each well of a 96-well plate were performed in HEK293 cells using the calcium phosphate coprecipitation method, as described previously [43]. The mammalian two-hybrid assay for cofactor interaction with VDR used 50 ng of TK-MH100(UAS) × 3- LUC reporter plasmid, 10 ng of pCMX-β-galactosidase, 15 ng of pCMX-GAL4-RXRα, pCMX-GAL4-SRC1, or pCMX-GAL4-NCoR, and 15 ng of pCMX-VP16-VDR for each well of a 96-well plate. Luciferase and β-galactosidase activities were measured with a luminometer and a microplate reader (Molecular Devices, Sun Jose, CA, USA), respectively. Luciferase values were normalized to the internal β-galactosidase control.
(§5) (B) Effects on the interactions between the VDR and SRC-1. HEK293 cells were co-transfected with CMX-GAL4-SRC-1, CMX-VP16-VDR, and MH100 (UAS) × 4-tk-LUC and were treated with each compound over a range of concentrations. (C) Effects on interactions of the VDR with NCoR-1. HEK293 cells were co-transfected with CMX-GAL4-N-CoR in combination with CMX-VP16-VDR and MH100 (UAS) × 4-tk-LUC and were treated with each compound over a range of concentrations.

[13] = molecular target: T4, VDR with RXRα (Homo sapiens, UniProt P11473); test: Mammalian two-hybrid assay, interaction of the VDR with RXRα
T4 sequence (P11473 1-427): T1 sequence (P11473 1-427)
T4 sequence (P19793 1-462 partner): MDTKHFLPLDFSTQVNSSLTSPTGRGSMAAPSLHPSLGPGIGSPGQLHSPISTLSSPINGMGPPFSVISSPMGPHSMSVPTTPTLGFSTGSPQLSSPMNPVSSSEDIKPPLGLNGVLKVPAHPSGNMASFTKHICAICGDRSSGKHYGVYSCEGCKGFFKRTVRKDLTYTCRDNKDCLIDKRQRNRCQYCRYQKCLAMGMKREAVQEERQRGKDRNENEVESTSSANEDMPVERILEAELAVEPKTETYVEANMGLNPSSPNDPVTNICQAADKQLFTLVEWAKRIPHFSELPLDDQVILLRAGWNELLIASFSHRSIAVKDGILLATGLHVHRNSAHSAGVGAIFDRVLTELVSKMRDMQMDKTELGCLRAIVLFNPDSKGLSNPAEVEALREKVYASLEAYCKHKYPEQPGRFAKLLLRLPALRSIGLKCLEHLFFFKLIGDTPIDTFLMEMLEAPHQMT
Method: as §3, §4, §5

[14] = molecular target: T5, VDR with NCoR (Homo sapiens, UniProt P11473); test: Mammalian two-hybrid assay, dissociation of NCoR from the VDR
T5 sequence (P11473 1-427): T1 sequence (P11473 1-427)
Method: as §3, §4, §5

[15] = test system: VDR; test: VDR affinity, previously reported; assay type: binding
[16] = design: method as in PMID 26613420; settings: versus natural hormone 1; cited from earlier work
[17] = read-out: Transcriptional activity EC50
[18] = this study, read-out: Transcriptional Activity EC50

Row | SMILES | IC50 [2] | Transcriptional Activity % Efficacy of That of 1 [3] | EC50 [3] | Transcriptional activity efficacy [7] | EC50 [7, 17] | Emax ([7]; this study) | EC50 [7, 18] | ALP activity [8] | fold lower activity of rapidly eluting epimer than the other 25-epimer [9] | VDR affinity, % of that of 1,25(OH)2D3 [9] | IC50 [10] | CYP24A1 expression activity in all cells [11] | EC50 [12] | EC50 [13] | IC50 [14] | also measured
1 | C=C1/C(=C\C=C2/CCC[C@]3(C)[C@@H]([C@H](C)CCC(F)(F)C(C)(C)O)CC[C@@H]23)C[C@H](O)C[C@H]1O [24F2-1,25(OH)2D3, 24, 24-difluoro-1α, 25-dihydroxyvitamin D3] |  |  |  |  |  |  |  |  |  |  |  |  |  |  |  | activity in HL-60 cell differentiation versus natural metabolite (1) [1]: four to seven times more activity than natural metabolite (1)
2 | C[C@H](/C=C/C[C@H](O)C12CC3CC(CC(C3)C1)C2)[C@H]1CC[C@H]2/C(=C/C=C3C[C@@H](O)C[C@H](O)C3)CCC[C@]12C [AD47] | 5 nM | 17% | 300 nM |  |  |  |  |  |  |  |  |  |  |  |  | IC50 [4]: 400 nM; CYP24A1 expression compared to 1 [5]: 50%; CYP24A1 expression compared to 1 [6]: 75%
3 | C=C1[C@H](O)CC(=C/C=C2\CCC[C@]3(C)[C@@H]([C@H](C)CC#C[C@](C)(O)C45CC6CC(CC(C6)C4)C5)CC[C@@H]23)C[C@H]1O [ADKM1, (25R)-25-(1-Adamantyl)-1α,25-dihydroxy-2-methylidene-23-yne-19,27-dinorvitamin D3] |  |  |  | 78% | 0.53 nM | 78% | 0.5 nM | 41% | 5–11 fold | 6% | 6.2 nM | 10-50% | 8.4 nM | 1.1 nM | 2.3 nM | 
4 | C=C1[C@H](O)CC(=C/C=C2\CCC[C@]3(C)[C@@H]([C@H](C)CC#C[C@@](O)(CC)C45CC6CC(CC(C6)C4)C5)CC[C@@H]23)C[C@H]1O [ADKM3, (25R)-25-(1-Adamantyl)-1a,25-dihydroxy-26-methyl-2-methylidene-23-yne-19,27-dinorvitamin D3] |  |  |  | 90% | 2.33 nM | 90% | 2.3 nM | 40.4% | 5–11 fold | 6% | 6.7 nM | 10-50% | 10.2 nM | 1.1 nM | 6.3 nM | 
5 | C=C1[C@H](O)CC(=C/C=C2\CCC[C@]3(C)[C@@H]([C@H](C)CC#C[C@@](O)(CCCC)C45CC6CC(CC(C6)C4)C5)CC[C@@H]23)C[C@H]1O [ADKM5, (25R)-25-(1-Adamantyl)-1α,25-dihydroxy-2-methylidene-26-propyl-23-yne-19,27-dinorvitamin D3] |  |  |  | 83% | 2.63 nM | 83% | 2.6 nM | 19% | 5–11 fold | 2% | 23.4 nM | 10-50% | 2.4 nM | 5.2 nM | 8.5 nM | 
6 | C=C1[C@H](O)CC(=C/C=C2\CCC[C@]3(C)[C@@H]([C@H](C)/C=C/C[C@H](O)C45CC6CC(CC(C6)C4)C5)CC[C@@H]23)C[C@H]1O [ADNY93] | 0.1 nM | 17% | 1 nM |  |  |  |  |  |  |  |  |  |  |  |  | VDR affinity, times that of AD47 (2) ([15]; effect of exocyclic methylene at C-2, values of Table 1): 50 times; IC50 [4]: 1.2 nM
7 | C=C1[C@H](O)CC(=C/C=C2\CCC[C@]3(C)[C@@H]([C@H](C)CC#C[C@@H](O)C45CC6CC(CC(C6)C4)C5)CC[C@@H]23)C[C@H]1O [ADTK1] | 0.5 nM | 81% |  |  |  |  |  | 45.6% |  |  |  |  |  |  |  | VDR affinity, % of that of 1 ([2]; relative to 1,25(OH)2D3 (1)): 90%; CYP24A1 expression compared to 1 [5]: less than 50%
8 | C=C1[C@H](O)CC(=C/C=C2\CCC[C@]3(C)[C@@H]([C@H](C)CC#C[C@H](O)C45CC6CC(CC(C6)C4)C5)CC[C@@H]23)C[C@H]1O [ADTK2] | 12 nM | > 38% | 6.6 nM |  |  |  |  |  |  |  |  |  |  |  |  | times less potent than 5b (25S) ([15]; 25R versus 25S epimer, values of ref 42): 24 times
9 | C=C1[C@H](O)CC(=C/C=C2\CCC[C@]3(C)[C@@H](C#CC#C[C@@H](O)C45CC6CC(CC(C6)C4)C5)CC[C@@H]23)C[C@H]1O [ADYW2] | 5 nM | 86% | 1.5 nM |  |  |  |  |  |  |  |  |  |  |  |  | stability in MG63 cells [16]: more stable than natural hormone 1
